Reference: patent EP1561465A2, “Methods of use of fluoroquinolone compounds against bacteria” (LG Life Sciences, Ltd., priority 1999, dated 2001)
In brackets after ≈: the same amount, converted by molar mass.

Columns and labels:
Type in all cases: cell-based
Escherichia coli = assay: MIC by NCCLS broth microdilution, 1100 Japanese clinical isolates 1997-1998; settings: for MIC50 / MIC90: Escherichia coli
Streptococcus pyogenes [1] = assay: MIC by agar dilution (NCCLS), 411 isolates Buenos Aires 1998-99; settings: Streptococcus pyogenes (n = 69)
Yersinia enterocolitica = assay: MIC by agar dilution (NCCLS M7-A4), 288 enteropathogenic isolates, eight quinolones; settings: Yersinia enterocolitica (n = 22)
Streptococcus pyogenes [2] = assay: MIC by NCCLS broth microdilution, 1100 Japanese clinical isolates 1997-1998; settings: Streptococcus pyogenes (n=51)
Providencia rettgeri = assay: as above
Campylobacter jejuni = assay: MIC by agar dilution (NCCLS M7-A4), 5% sheep blood, microaerophilic 48 h; settings: Campylobacter jejuni (n=91)
Enterococcus faecium = assay: MIC by NCCLS broth microdilution, 1100 Japanese clinical isolates 1997-1998; settings: for MIC: Enterococcus faecium
Haemophilus influenzae [3] = assay: MIC by two-fold serial agar dilution, Sensitivity Disk agar-N (Kitasato isolates); settings: Haemophilus influenzae (24)
Moraxella catarrhalis [4] = assay: MIC by agar dilution (NCCLS), 411 isolates Buenos Aires 1998-99; settings: Moraxella catarrhalis (n = 59)
Citrobacter freundii = assay: MIC by NCCLS broth microdilution, 1100 Japanese clinical isolates 1997-1998
Haemophilus influenzae [5] = assay: MIC by broth microdilution (NCCLS), dried MicroScan panels, clinical isolates 1998-1999; settings: for MIC90: Haemophilus influenzae
Moraxella catarrhalis [6] = assay: MIC by two-fold serial agar dilution, Sensitivity Disk agar-N (Kitasato isolates); settings: Moraxella catarrhalis (22)
Streptococcus pneumoniae = assay: MIC by NCCLS reference broth microdilution, 450 respiratory tract pathogens; settings: for MIC / MIC50 / MIC90: Streptococcus pneumoniae
[7] = Escherichia coli ciprofloxacin susceptible (n=37)
[8] = Haemophilus influenzae (300 isolates)
[9] = Streptococcus pneumoniae (n = 100)
[10] = erythromycin resistant M phenotype (n = 16)
[11] = penicillin intermediate (n = 16)

`CO/N=C1\CN(c2nc3c(cc2F)c(=O)c(C(=O)O)cn3C2CC2)CC1CN` (racemic) [Gemifloxacin, (R,S)-7-(3-aminomethyl-4-methoxyiminopyrrolidin-1-yl)-1-cyclopropyl-6-fluoro-4-oxo-1,4-dihydro-1,8-naphthyridine-3-carboxylic acid] was tested, and the “MIC Range” value (Escherichia coli; [7]) was at most 0.008 to 0.125 µg/mL, the MIC50 (Escherichia coli; Escherichia coli ciprofloxacin resistant (n=5)) was 32 µg/mL (≈ 82.2 µM) and the MIC90 (Escherichia coli; Escherichia coli ciprofloxacin resistant (n=5), values marked *: MIC80 value) was 32 µg/mL (≈ 82.2 µM). For the same compound, the MIC50 (Escherichia coli; [7]) was at most 0.008 µg/mL, the MIC90 (Escherichia coli; [7]) was 0.032 µg/mL (≈ 0.0822 µM) and the “MIC Range” value (Streptococcus pyogenes [1]) was at most 0.004 to 0.125 µg/mL. The MIC90 (Streptococcus pyogenes [1]; read-out: MIC90) was 0.03 µg/mL (≈ 0.077 µM), the “% Susceptible” value (Yersinia enterocolitica) was 100% and the MIC50 (Yersinia enterocolitica) was 0.03 µg/mL (≈ 0.077 µM). For the same compound, the MIC90 (Yersinia enterocolitica) was 0.03 µg/mL (≈ 0.077 µM), the “MIC Range” value (Yersinia enterocolitica) was at most 0.015 to 0.12 µg/mL and the MIC90 (Streptococcus pyogenes [2]) was 0.063 µg/mL (≈ 0.162 µM). The “MIC Range” value (Streptococcus pyogenes [2]) was 0.016 to 0.125 µg/mL, the MIC50 (Streptococcus pyogenes [2]; read-out: MIC50) was 0.032 µg/mL (≈ 0.0822 µM) and the MIC50 (Providencia rettgeri; Providencia rettgeri) was 0.125 µg/mL (≈ 0.321 µM). For the same compound, the MIC90 (Providencia rettgeri; Providencia rettgeri (n=12)) was 8 µg/mL (≈ 20.5 µM), the “MIC Range” value (Providencia rettgeri; Providencia rettgeri (n=12)) was 0.063 to 16 µg/mL and the “% Susceptible” value (Campylobacter jejuni) was 31.86%. For the same compound, the MIC50 (Campylobacter jejuni) was 32 µg/mL (≈ 82.2 µM), the MIC90 (Campylobacter jejuni) was 128 µg/mL (≈ 329 µM) and the “MIC Range” value (Campylobacter jejuni) was 0.03 to 128 µg/mL. The MIC50 (Enterococcus faecium; Enterococcus faecium (n=39)) was 16 µg/mL (≈ 41.1 µM), the MIC90 (Enterococcus faecium; Enterococcus faecium (n=39)) was 64 µg/mL (≈ 164 µM) and the “MIC Range” value (Enterococcus faecium; Enterococcus faecium (n=39)) was 0.063 to 64 µg/mL. It also gave an MIC (Enterococcus faecium; Enterococcus faecium (vanA) vancomycin resistant, strain TMS1) of 16 µg/mL (≈ 41.1 µM), an MIC (Enterococcus faecium; Enterococcus faecium (vanA) vancomycin resistant, strain TMS2) of 2 µg/mL (≈ 5.14 µM) and an MIC (Enterococcus faecium; Enterococcus faecium (vanA) vancomycin resistant, strain TMS3) of 4 µg/mL (≈ 10.3 µM). The MIC (Enterococcus faecium; Enterococcus faecium (vanA) vancomycin resistant, strain TMS4) was 4 µg/mL (≈ 10.3 µM), the MIC (Enterococcus faecium; Enterococcus faecium (vanA) vancomycin resistant, strain TMS5) was 2 µg/mL (≈ 5.14 µM) and the MIC (Enterococcus faecium; Enterococcus laecium (van B) vancomycin resistant, strain TMS6) was 32 µg/mL (≈ 82.2 µM). For the same compound, the MIC (Enterococcus faecium; Enterococcus laecium (van B) vancomycin resistant, strain TMS7) was 32 µg/mL (≈ 82.2 µM), the MIC50 (Haemophilus influenzae [3]) was 0.016 µg/mL (≈ 0.0411 µM) and the MIC90 (Haemophilus influenzae [3]) was 0.016 µg/mL (≈ 0.0411 µM). The “MIC Range” value (Haemophilus influenzae [3]) was 0.008 to 0.031 µg/mL, the “MIC Range” value (Moraxella catarrhalis [4]) was at most 0.004 to 0.016 µg/mL and the MIC90 (Moraxella catarrhalis [4]; read-out: MIC90) was 0.008 µg/mL (≈ 0.0205 µM). For the same compound, the MIC50 (Citrobacter freundii; Citrobacter freundii) was 0.125 µg/mL (≈ 0.321 µM), the MIC90 (Citrobacter freundii; Citrobacter freundii (n=39)) was 2 µg/mL (≈ 5.14 µM) and the “MIC Range” value (Citrobacter freundii; Citrobacter freundii (n=39)) was 0.016 to 4 µg/mL. For the same compound, the “activity superior to that of levofloxacin” value (Haemophilus influenzae [5]; H. influenzae) was “four-fold”, the MIC50 (Haemophilus influenzae [5]; [8]) was 0.004 µg/mL (≈ 0.0103 µM) and the “MIC Range” value (Haemophilus influenzae [5]; [8]) was at most 0.0015 to 0.12 µg/mL. For the same compound, the MIC90 (Haemophilus influenzae [5]; [8]) was 0.008 µg/mL (≈ 0.0205 µM), the MIC90 (Haemophilus influenzae [5]; β-lactamase negative (234)) was 0.008 µg/mL (≈ 0.0205 µM) and the MIC90 (Haemophilus influenzae [5]; β-lactamase positive (66)) was 0.03 µg/mL (≈ 0.077 µM). For the same compound, the MIC50 (Moraxella catarrhalis [6]) was 0.031 µg/mL (≈ 0.0796 µM), the MIC90 (Moraxella catarrhalis [6]) was 0.031 µg/mL (≈ 0.0796 µM) and the “MIC Range” value (Moraxella catarrhalis [6]) was 0.016 to 0.031 µg/mL. The “times more potent than all comparator agents” value (Streptococcus pneumoniae; S. pneumoniae) was 4-64 times, the MIC (Streptococcus pneumoniae; [9]) was 0.0075 to 0.03 µg/mL (≈ 0.0193 to 0.077 µM) and the MIC50 (Streptococcus pneumoniae; [9]) was 0.015 µg/mL (≈ 0.0385 µM). It also gave an MIC90 (Streptococcus pneumoniae; [9]) of 0.03 µg/mL (≈ 0.077 µM), an MIC (Streptococcus pneumoniae; [10]) of 0.015 to 0.05 µg/mL (≈ 0.0385 to 0.128 µM) and an MIC50 (Streptococcus pneumoniae; [10]) of 0.015 µg/mL (≈ 0.0385 µM). It also gave an MIC90 (Streptococcus pneumoniae; [10]) of 0.03 µg/mL (≈ 0.077 µM), an MIC (Streptococcus pneumoniae; erythromycin resistant MLSB phenotype (n = 16)) of 0.0075 to 0.03 µg/mL (≈ 0.0193 to 0.077 µM) and an MIC (Streptococcus pneumoniae; multi-drug resistant (n = 16)) of 0.0075 to 0.03 µg/mL (≈ 0.0193 to 0.077 µM). The MIC50 (Streptococcus pneumoniae; multi-drug resistant (n = 16)) was 0.015 µg/mL (≈ 0.0385 µM), the MIC90 (Streptococcus pneumoniae; multi-drug resistant (n = 16)) was 0.03 µg/mL (≈ 0.077 µM) and the MIC (Streptococcus pneumoniae; [11]) was 0.0075 to 0.03 µg/mL (≈ 0.0193 to 0.077 µM). The MIC50 (Streptococcus pneumoniae; [11]) was 0.015 µg/mL (≈ 0.0385 µM), the MIC90 (Streptococcus pneumoniae; [11]) was 0.015 µg/mL (≈ 0.0385 µM) and the MIC (Streptococcus pneumoniae; penicillin resistant (n = 18)) was 0.0075 to 0.06 µg/mL (≈ 0.0193 to 0.154 µM). The MIC50 (Streptococcus pneumoniae; penicillin resistant (n = 18)) was at most 0.0075 µg/mL and the MIC90 (Streptococcus pneumoniae; penicillin resistant (n = 18)) was 0.06 µg/mL (≈ 0.154 µM).
